From patent US20250145601A1, “NOVEL BICYCLIC COMPOUNDS AS RAD51 INHIBITORS” (SATYA THERAPEUTICS, INC., priority 2022, published 2025)

tested on: MDA MB 231 cells; assay: Antiproliferation assay in MDA MB 231 cells (Cell Titer Glo); format: cell-based; conditions: Homo sapiens, MDA-MB-231, 216 h, MDAMB231 cell line, 9 day treatment, racemic compounds (Table 2)
Procedure: Antiproliferation Assay in MDA MB 231 Cells MDA MB 231 cells were seeded in 96 well plate at a seeding density of 250 cells/well. The cells were allowed to settle overnight under standard incubator conditions (37° C., 5% CO2). Next day treatment with increasing dose of test compounds and reference compounds were done to the respective wells and the cells were further incubated under standard cell culture conditions for another 4 days. On the 5th day, media was replenished with fresh treatment and cells were incubated for a total of 9 day treatment period. On the day of termination, appropriate volume of Cell Titer Glo reagent was added to the treatment (and control) wells and the plates were kept on a plate shaker @300 RPM for 15 min. Luminiscence reading (RLU) was […] RLU is directly proportional to ATP content and is directly related to number of metabolically active cells in the respective well. Calculation: a. Blank Correction: RLU of the Wells Containing No Cells is Considered as Blank and Subtracted from all RLU of the Treated and Control Wells [formula]

Structure (SMILES) | inhibition at 10 µM [%]
CCC(=O)N1N=C(c2c(C)c3ccsc3[nH]c2=O)CC1c1ccc(OC)cc1 (racemic) [Example 20, 5-(5-(4-Methoxyphenyl)-1-propionyl-4,5-dihydro-1H-pyrazol-3-yl)-4-methylthieno-[2,3-b]pyridin-6(7H)-one] | ≥ 50
CCC(=O)N1N=C(c2c(C)c3ccsc3[nH]c2=O)CC1c1ccc(Cl)cc1 (racemic) [Example 28, 5-(5-(4-chlorophenyl)-1-propionyl-4,5-dihydro-1H-pyrazol-3-yl)-4-methylthieno[2,3-b]pyridin-6(7H)-one] | ≥ 50
CCC(=O)N1N=C(c2c(C)c3ccsc3[nH]c2=O)CC1c1ccsc1 (racemic) [Example 33, 4-methyl-5-(1-propionyl-5-(thiophen-3-yl)-4,5-dihydro-1H-pyrazol-3-yl)thieno[2,3-b]pyridin-6(7H)-one] | < 50
CCC(=O)N1N=C(c2c(C)c3ccsc3[nH]c2=O)CC1c1ccc(C)cc1 (racemic) [Example 37, 4-methyl-5-(1-propionyl-5-(p-tolyl)-4,5-dihydro-1H-pyrazol-3-yl)thieno[2,3-b]pyridin-6(7H)-one] | ≥ 50
CCC(=O)N1N=C(c2c(C)c3ccsc3[nH]c2=O)CC1c1ccc(C)nc1 (racemic) [Example 45, 4-methyl-5-(5-(6-methylpyridin-3-yl)-1-propionyl-4,5-dihydro-1H-pyrazol-3-yl)thieno[2,3-b]pyridin-6(7H)-one] | ≥ 50
CCC(=O)N1N=C(c2c(C)c3ccccc3[nH]c2=O)CC1c1ccc(C)cc1 (racemic) [Example 60, 4-methyl-3-(1-propionyl-5-(p-tolyl)-4,5-dihydro-1H-pyrazol-3-yl)quinolin-2(1H)-one] | ≥ 50
CCC(=O)N1N=C(c2c(C)c3ccsc3[nH]c2=O)CC1c1ccc(C)cc1F (racemic) [Example 66, 5-(5-(2-fluoro-4-methylphenyl)-1-propionyl-4,5-dihydro-1H-pyrazol-3-yl)-4-methylthieno[2,3-b]pyridin-6(7H)-one] | ≥ 50
CCC(=O)N1N=C(c2c(C)c3ccncc3[nH]c2=O)CC1c1ccc(C)cc1 (racemic) [Example 74, 4-methyl-3-(1-propionyl-5-(p-tolyl)-4,5-dihydro-1H-pyrazol-3-yl)-1,7-naphthyridin-2(1H)-one] | ≥ 50
CCC(=O)N1N=C(c2c(C)c3ccnc(C)c3[nH]c2=O)CC1c1ccc(C)cc1 (racemic) [Example 78, 4,8-dimethyl-3-(1-propionyl-5-(p-tolyl)-4,5-dihydro-1H-pyrazol-3-yl)-1,7-naphthyridin-2(1H)-one] | ≥ 50
CCC(=O)N1N=C(c2c(C)c3ccc(Cl)cc3[nH]c2=O)CC1c1ccc(C)cc1 (racemic) [Example 80, 7-chloro-4-methyl-3-(1-propionyl-5-(p-tolyl)-4,5-dihydro-1H-pyrazol-3-yl)quinolin-2(1H)-one] | ≥ 50
CCC(=O)N1N=C(c2c(C)c3ccc(N4CCN(C)CC4)cc3[nH]c2=O)CC1c1ccc(C)cc1 (racemic) [Example 82, 4-methyl-7-(4-methylpiperazin-1-yl)-3-(1-propionyl-5-(p-tolyl)-4,5-dihydro-1H-pyrazol-3-yl)quinolin-2(1H)-one] | ≥ 50
CCC(=O)N1N=C(c2c(C)c3cc(Cl)ccc3[nH]c2=O)CC1c1ccc(OC)cc1 (stereo not shown) [Example 1, 6-Chloro-3-(5-(4-methoxyphenyl)-1-propionyl-4,5-dihydro-1H-pyrazol-3-yl)-4-methylquinolin-2(1H)-one] | ≥ 50
COc1ccc(C2CC(c3c(C)c4cc(Cl)ccc4[nH]c3=O)=NN2C(=O)C2CC2)cc1 (stereo not shown) [Example 2, 6-Chloro-3-(1-(cyclopropanecarbonyl)-5-(4-methoxyphenyl)-4,5-dihydro-1H-pyrazol-3-yl)-4-methylquinolin-2(1H)-one] | ≥ 50
COc1ccc(C2CC(c3c(C)c4cc(Cl)ccc4[nH]c3=O)=NN2C(=O)C2CCOCC2)cc1 (stereo not shown) [Example 3, 6-chloro-3-(5-(4-methoxyphenyl)-1-(tetrahydro-2H-pyran-4-carbonyl)-4,5-dihydro-1H-pyrazol-3-yl)-4-methylquinolin-2(1H)-one] | ≥ 50
COc1ccc(C2CC(c3c(C)c4cc(Cl)ccc4[nH]c3=O)=NN2C(=O)C2CCOC2)cc1 (stereo not shown) [Example 4, 6-chloro-3-(5-(4-methoxyphenyl)-1-(tetrahydrofuran-3-carbonyl)-4,5-dihydro-1H-pyrazol-3-yl)-4-methylquinolin-2(1H)-one] | ≥ 50
COc1ccc(C2CC(c3c(C)c4cc(Cl)ccc4[nH]c3=O)=NN2C)cc1 (stereo not shown) [Example 5, 6-Chloro-3-(5-(4-methoxyphenyl)-1-methyl-4,5-dihydro-1H-pyrazol-3-yl)-4-methylquinolin-2(1H)-one] | < 50
CCC(=O)N1N=C(c2c(C)c3cc(Cl)ccc3[nH]c2=O)CC1c1ccc2ccn(C)c2c1 (stereo not shown) [Example 6, 6-Chloro-4-methyl-3-(5-(1-methyl-1H-indol-6-yl)-1-propionyl-4,5-dihydro-1H-pyrazol-3-yl)quinolin-2(1H)-one] | ≥ 50
CCC(=O)N1N=C(c2c(C)c3cc(Cl)ccc3[nH]c2=O)CC1c1ccc(OC)nc1 (stereo not shown) [Example 7, 6-chloro-3-(5-(6-methoxypyridin-3-yl)-1-propionyl-4,5-dihydro-1H-pyrazol-3-yl)-4-methylquinolin-2(1H)-one] | ≥ 50
CCC(=O)Nc1ccc(C2CC(c3c(C)c4cc(Cl)ccc4[nH]c3=O)=NN2C(=O)CC)cc1 (stereo not shown) [Example 8, N-(4-(3-(6-chloro-4-methyl-2-oxo-1,2-dihydroquinolin-3-yl)-1-propionyl-4,5-dihydro-1H-pyrazol-5-yl)phenyl)propionamide] | ≥ 50
CCC(=O)N1N=C(c2c(C)c3ncccc3[nH]c2=O)CC1c1ccc(OC)cc1 (stereo not shown) [Example 9, 3-(5-(4-Methoxyphenyl)-1-propionyl-4,5-dihydro-1H-pyrazol-3-yl)-4-methyl-1,5-naphthyridin-2(1H)-one] | < 50
CCC(=O)N1N=C(c2c(C)c3ccccc3[nH]c2=O)CC1c1ccc(OC)cc1 (stereo not shown) [Example 11, 3-(5-(4-Methoxyphenyl)-1-propionyl-4,5-dihydro-1H-pyrazol-3-yl)-4-methylquinolin-2(1H)-one] | ≥ 50
CCC(=O)N1N=C(c2c(C)c3ccccc3[nH]c2=O)CC1c1cn(C)c2ccccc12 (stereo not shown) [Example 12, 4-Methyl-3-(5-(1-methyl-1H-indol-3-yl)-1-propionyl-4,5-dihydro-1H-pyrazol-3-yl)quinolin-2(1H)-one] | ≥ 50

same assay, conditions: Homo sapiens, MDA-MB-231, 216 h, MDAMB231 cell line, 9 day treatment, separated enantiomers A/B (Table 3)

Structure (SMILES) | inhibition at 10 µM [%]
CCC(=O)N1N=C(c2c(C)c3ccsc3[nH]c2=O)CC1c1ccc(OC)cc1 (single isomer, unassigned) [Example 20A] | ≥ 50
CCC(=O)N1N=C(c2c(C)c3ccsc3[nH]c2=O)CC1c1ccc(Cl)cc1 (single isomer, unassigned) [Example 28B] | ≥ 50
CCC(=O)N1N=C(c2c(C)c3ccsc3[nH]c2=O)CC1c1ccsc1 (single isomer, unassigned) [Example 33B] | < 50
CCC(=O)N1N=C(c2c(C)c3ccsc3[nH]c2=O)CC1c1ccc(C)cc1 (single isomer, unassigned) [Example 37B] | ≥ 50
CCC(=O)N1N=C(c2c(C)c3ccsc3[nH]c2=O)CC1c1ccc(C)nc1 (single isomer, unassigned) [Example 45B] | ≥ 50
CCC(=O)N1N=C(c2c(C)c3ccccc3[nH]c2=O)CC1c1ccc(C)cc1 (single isomer, unassigned) [Example 60B] | ≥ 50
CCC(=O)N1N=C(c2c(C)c3ccsc3[nH]c2=O)CC1c1ccc(C)cc1F (single isomer, unassigned) [Example 66A] | ≥ 50
CCC(=O)N1N=C(c2c(C)c3ccncc3[nH]c2=O)CC1c1ccc(C)cc1 (single isomer, unassigned) [Example 74A] | ≥ 50
CCC(=O)N1N=C(c2c(C)c3ccnc(C)c3[nH]c2=O)CC1c1ccc(C)cc1 (single isomer, unassigned) [Example 78A] | < 50
CCC(=O)N1N=C(c2c(C)c3ccc(Cl)cc3[nH]c2=O)CC1c1ccc(C)cc1 (single isomer, unassigned) [Example 80A] | < 50
CCC(=O)N1N=C(c2c(C)c3ccc(N4CCN(C)CC4)cc3[nH]c2=O)CC1c1ccc(C)cc1 (single isomer, unassigned) [Example 82A] | ≥ 50
CCC(=O)N1N=C(c2c(C)c3ccccc3[nH]c2=O)C[C@@H]1c1ccc(C)cc1 (stereo in doubt) [Example 60A, rel-(R)-4-methyl-3-(1-propionyl-5-(p-tolyl)-4,5-dihydro-1H-pyrazol-3-yl)quinolin-2-(1H)-one] | ≥ 50

same assay, conditions: MDAMB231 cell line, 9 day treatment, separated enantiomers A/B (Table 3), 10 µM

Structure (SMILES) | % inhibition @ 10 μM
CCC(=O)N1N=C(c2c(C)c3ccsc3[nH]c2=O)CC1c1ccc(C)nc1 (single isomer, unassigned) [Example 45A] | ++ (<50% ++)
CCC(=O)N1N=C(c2c(C)c3ccnc(C)c3[nH]c2=O)CC1c1ccc(C)cc1 (single isomer, unassigned) [Example 78B] | + (≥50% +)
CCC(=O)N1N=C(c2c(C)c3ccc(Cl)cc3[nH]c2=O)CC1c1ccc(C)cc1 (single isomer, unassigned) [Example 80B] | + (≥50% +)
